Values of other authors, collected in paper PMC4533831 (Molecular pharmaceutics, 2015).

System: IGF2R
Conditions: read-out: relative binding affinity IC50; affinity to IGF2R

For `O=C[C@@H](O)[C@@H](O)[C@H](O)[C@H](O)COP(=O)(O)O` [M6P, mannose-6-phosphate], the IC50 is listed as 23 µM.
